# Measured values reported in publication PMC5218480 (PLoS ONE, 2017).
# System: MV-4-11 cells
# Assay: Gene expression microarray analysis (Affymetrix PrimeView) and GSEA
# Format: cell-based, human
# Design: RFU PODN (11730768_x_at) / Fold change /veh PODN (11730768_x_at) / RFU LINC00158 (11744669_a_at) / Fold change /veh LINC00158 (11744669_a_at) / RFU DUSP10 (11751237_a_at) / Fold change /veh DUSP10 (11751237_a_at) / RFU ID3 (11757404_x_at) / Fold change /veh ID3 (11757404_x_at) / RFU PLEKHG5 (11737974_s_at) / Fold change /veh PLEKHG5 (11737974_s_at) / RFU LRRC4B (11730491_at) / Fold change /veh LRRC4B (11730491_at) / RFU GIMAP4 (11747438_a_at) / Fold change /veh GIMAP4 (11747438_a_at) / RFU KRT8 (11758183_x_at) / Fold change /veh KRT8 (11758183_x_at) / RFU CNN1 (11734310_a_at) / Fold change /veh CNN1 (11734310_a_at) / RFU VPS37D (11726825_at) / Fold change /veh VPS37D (11726825_at) / RFU C10orf10 (11716522_x_at) / Fold change /veh C10orf10 (11716522_x_at) / RFU KIR2DL2 /// KIR2DL4 /// KIR2DL5A /// KIR2DL5B /// KIR2DS1 /// KIR2DS2 /// KIR2DS3 /// KIR2DS4 /// KIR3DL3 /// KIR3DL3 /// KIR3DS1 (11738374_at) / Fold change /veh KIR2DL2 /// KIR2DL4 /// KIR2DL5A /// KIR2DL5B /// KIR2DS1 /// KIR2DS2 /// KIR2DS3 /// KIR2DS4 /// KIR3DL3 /// KIR3DL3 /// KIR3DS1 (11738374_at) / RFU C1QL1 (11718748_at) / Fold change /veh C1QL1 (11718748_at) / RFU TMPRSS4 (11747572_a_at) / Fold change /veh TMPRSS4 (11747572_a_at) / RFU HAMP (11756126_x_at) / Fold change /veh HAMP (11756126_x_at) / RFU RNFT2 (11725882_a_at) / Fold change /veh RNFT2 (11725882_a_at) / RFU NR4A2 (11747474_a_at) / Fold change /veh NR4A2 (11747474_a_at) / RFU ABCC12 (11746883_a_at) / Fold change /veh ABCC12 (11746883_a_at) / RFU TMEM136 (11760407_x_at) / Fold change /veh TMEM136 (11760407_x_at) / RFU CLDN22 /// WWC2 (11732394_at) / Fold change /veh CLDN22 /// WWC2 (11732394_at) / RFU HLA-DPB1 (11760878_x_at) / Fold change /veh HLA-DPB1 (11760878_x_at) / RFU SPINT1 (11716480_a_at) / Fold change /veh SPINT1 (11716480_a_at) / RFU GAP43 (11754022_s_at) / Fold change /veh GAP43 (11754022_s_at) / RFU A4GNT (11735810_at) / Fold change /veh A4GNT (11735810_at) / RFU PRB3 (11715151_x_at) / Fold change /veh PRB3 (11715151_x_at) / RFU TUBB4B (11761932_at) / Fold change /veh TUBB4B (11761932_at) / RFU CAPN14 (11732068_a_at) / Fold change /veh CAPN14 (11732068_a_at) / RFU TMCC2 (11721928_a_at) / Fold change /veh TMCC2 (11721928_a_at) / RFU IRGQ (11745062_a_at) / Fold change /veh IRGQ (11745062_a_at) / RFU FAM174B (11720279_a_at) / Fold change /veh FAM174B (11720279_a_at) / RFU TMPRSS4 (11748680_a_at) / Fold change /veh TMPRSS4 (11748680_a_at) / RFU FAM212B (11763350_a_at) / Fold change /veh FAM212B (11763350_a_at) / RFU PLEKHG5 (11743358_a_at) / Fold change /veh PLEKHG5 (11743358_a_at) / RFU ZSCAN30 (11745921_a_at) / Fold change /veh ZSCAN30 (11745921_a_at) / RFU CMKLR1 (11741424_a_at) / Fold change /veh CMKLR1 (11741424_a_at) / RFU LOC101060620 /// MAPK8IP1 (11723275_at) / Fold change /veh LOC101060620 /// MAPK8IP1 (11723275_at) / RFU SPTSSB (11747773_x_at) / Fold change /veh SPTSSB (11747773_x_at) / RFU PRSS12 (11739890_at) / Fold change /veh PRSS12 (11739890_at) / RFU BIN1 (11741810_x_at) / Fold change /veh BIN1 (11741810_x_at) / RFU WNT11 (11732464_a_at) / Fold change /veh WNT11 (11732464_a_at) / RFU C10orf10 (11716521_a_at) / Fold change /veh C10orf10 (11716521_a_at) / RFU C5orf56 (11738089_at) / Fold change /veh C5orf56 (11738089_at) / RFU CYB561 (11721691_x_at) / Fold change /veh CYB561 (11721691_x_at) / RFU ANKRD19P (11752326_a_at) / Fold change /veh ANKRD19P (11752326_a_at) / RFU OR2T12 /// OR2T33 /// OR2T8 (11738714_s_at) / Fold change /veh OR2T12 /// OR2T33 /// OR2T8 (11738714_s_at) / RFU VCAN (11748164_a_at) / Fold change /veh VCAN (11748164_a_at) / RFU JSRP1 (11732532_at) / Fold change /veh JSRP1 (11732532_at) / RFU KRTAP10-11 (11738290_x_at) / Fold change /veh KRTAP10-11 (11738290_x_at) / RFU MYO3A (11730013_a_at) / Fold change /veh MYO3A (11730013_a_at) / RFU EBF3 (11725865_a_at) / Fold change /veh EBF3 (11725865_a_at) / RFU CAMK2N1 (11719241_x_at) / Fold change /veh CAMK2N1 (11719241_x_at) / RFU C5orf56 (11738088_a_at) / Fold change /veh C5orf56 (11738088_a_at) / RFU OLFML3 (11715873_a_at) / Fold change /veh OLFML3 (11715873_a_at) / RFU LOC100653217 /// NTM (11731650_a_at) / Fold change /veh LOC100653217 /// NTM (11731650_a_at) / RFU MAPK11 (11762145_a_at) / Fold change /veh MAPK11 (11762145_a_at) / RFU FIZ1 (11724087_x_at) / Fold change /veh FIZ1 (11724087_x_at) / RFU OASL (11726364_x_at) / Fold change /veh OASL (11726364_x_at) / RFU SOX15 (11748057_x_at) / Fold change /veh SOX15 (11748057_x_at) / RFU CD79A (11719716_a_at) / Fold change /veh CD79A (11719716_a_at) / RFU HIST1H1D (11736915_at) / Fold change /veh HIST1H1D (11736915_at) / RFU CASKIN2 (11723855_a_at) / Fold change /veh CASKIN2 (11723855_a_at) / RFU LOC730098 (11760151_x_at) / Fold change /veh LOC730098 (11760151_x_at) / RFU OR4N2 (11742367_at) / Fold change /veh OR4N2 (11742367_at) / RFU PRRT2 (11749266_a_at) / Fold change /veh PRRT2 (11749266_a_at) / RFU SNX32 (11753110_a_at) / Fold change /veh SNX32 (11753110_a_at) / RFU CDHR5 (11726645_a_at) / Fold change /veh CDHR5 (11726645_a_at) / RFU RCAN1 (11760418_a_at) / Fold change /veh RCAN1 (11760418_a_at) / RFU FAM167A (11723789_a_at) / Fold change /veh FAM167A (11723789_a_at) / RFU FAM26E (11764081_at) / Fold change /veh FAM26E (11764081_at) / RFU ISYNA1 (11749810_s_at) / Fold change /veh ISYNA1 (11749810_s_at) / RFU ACY1 (11761880_at) / Fold change /veh ACY1 (11761880_at) / RFU 11764098_at / Fold change /veh 11764098_at / RFU SAMD14 (11745864_x_at) / Fold change /veh SAMD14 (11745864_x_at) / RFU NPB (11741838_a_at) / Fold change /veh NPB (11741838_a_at) / RFU TMPRSS6 (11731388_a_at) / Fold change /veh TMPRSS6 (11731388_a_at) / RFU KRTAP10-2 (11738614_at) / Fold change /veh KRTAP10-2 (11738614_at) / RFU ARHGAP8 /// PRR5-ARHGAP8 (11727945_x_at) / Fold change /veh ARHGAP8 /// PRR5-ARHGAP8 (11727945_x_at) / RFU KRTAP5-7 /// NADSYN1 (11734609_at) / Fold change /veh KRTAP5-7 /// NADSYN1 (11734609_at) / RFU RASL12 (11751679_a_at) / Fold change /veh RASL12 (11751679_a_at) / RFU CDKN2B (11736163_a_at) / Fold change /veh CDKN2B (11736163_a_at) / RFU PRF1 (11729649_at) / Fold change /veh PRF1 (11729649_at) / RFU, ZNF638 /// ZNF638-IT1 / Fold change vs veh, ZNF638 /// ZNF638-IT1 / RFU, PANK3 / Fold change vs veh, PANK3 / RFU, SH3YL1 / Fold change vs veh, SH3YL1 / RFU, ZEB2 / Fold change vs veh, ZEB2 / RFU, NRIP1 / Fold change vs veh, NRIP1 / RFU, PTTG1IP / Fold change vs veh, PTTG1IP / RFU, CAPN2 / Fold change vs veh, CAPN2 / RFU, MED14 / Fold change vs veh, MED14 / RFU, SNORA58 / Fold change vs veh, SNORA58 / RFU, C1orf63 / Fold change vs veh, C1orf63 / RFU, LRRFIP1 / Fold change vs veh, LRRFIP1 / RFU, NDUFAF7 / Fold change vs veh, NDUFAF7 / RFU, SLC12A2 / Fold change vs veh, SLC12A2 / RFU, IBTK / Fold change vs veh, IBTK / RFU, ESF1 / Fold change vs veh, ESF1 / Fold change vs veh, TMEM50B / RFU, TAOK1 / Fold change vs veh, TAOK1 / RFU, ACBD3 / Fold change vs veh, ACBD3 / RFU, TMA16 / Fold change vs veh, TMA16 / RFU, RWDD3 / Fold change vs veh, RWDD3 / RFU, BCAT1 / Fold change vs veh, BCAT1 / RFU, EDEM3 / Fold change vs veh, EDEM3 / RFU, TMEM33 / Fold change vs veh, TMEM33 / RFU, WDR75 / Fold change vs veh, WDR75 / RFU, AHCTF1 / Fold change vs veh, AHCTF1 / RFU, TFRC / Fold change vs veh, TFRC / RFU, ZDHHC17 / Fold change vs veh, ZDHHC17 / RFU, NOM1 / Fold change vs veh, NOM1 / RFU, ARL8B / Fold change vs veh, ARL8B / RFU, ZBTB11 / Fold change vs veh, ZBTB11 / RFU, TAMM41 / Fold change vs veh, TAMM41 / RFU, KIAA1704 /// LOC100996395 / Fold change vs veh, KIAA1704 /// LOC100996395 / RFU, ING1 / Fold change vs veh, ING1 / RFU, TRMT61B / Fold change vs veh, TRMT61B / RFU, FUBP3 / Fold change vs veh, FUBP3 / RFU, TP53 / Fold change vs veh, TP53 / RFU, TNKS2 / Fold change vs veh, TNKS2 / RFU, ZFP14 / Fold change vs veh, ZFP14 / RFU, ACTR2 / Fold change vs veh, ACTR2 / RFU, PPP3R1 / Fold change vs veh, PPP3R1 / RFU, PIK3R1 / Fold change vs veh, PIK3R1 / RFU, HNRNPA1 / Fold change vs veh, HNRNPA1 / RFU, RNF170 / Fold change vs veh, RNF170 / RFU, ZNF28 / Fold change vs veh, ZNF28 / RFU, RNGTT / Fold change vs veh, RNGTT / RFU, OGT / Fold change vs veh, OGT / RFU, BRD1 / Fold change vs veh, BRD1 / RFU, MARS / Fold change vs veh, MARS / RFU, ZNF655 / Fold change vs veh, ZNF655 / RFU, FAHD1 / Fold change vs veh, FAHD1 / RFU, BDP1 / Fold change vs veh, BDP1 / RFU, LRRCC1 / Fold change vs veh, LRRCC1 / RFU, ARID1A / Fold change vs veh, ARID1A / RFU, ZNF146 / Fold change vs veh, ZNF146 / RFU, ZNF330 / Fold change vs veh, ZNF330 / RFU, GPN3 / Fold change vs veh, GPN3 / RFU, C9orf123 / Fold change vs veh, C9orf123 / RFU, N4BP2L2 / Fold change vs veh, N4BP2L2 / RFU, ARFIP1 / Fold change vs veh, ARFIP1 / RFU, FAM179B / Fold change vs veh, FAM179B / RFU, BCL10 / Fold change vs veh, BCL10 / RFU, UHRF1BP1L / Fold change vs veh, UHRF1BP1L / RFU, BET1 / Fold change vs veh, BET1 / RFU, CNOT2 / Fold change vs veh, CNOT2 / RFU, ZNF268 / Fold change vs veh, ZNF268 / Fold change vs veh, ZNF507 / RFU, DGCR2 / Fold change vs veh, DGCR2 / RFU, WDSUB1 / Fold change vs veh, WDSUB1 / Fold change vs veh, HSP90B1 /// MIR3652 / RFU, ADSS / Fold change vs veh, ADSS / RFU, GK / Fold change vs veh, GK / RFU, ZNF148 / Fold change vs veh, ZNF148 / RFU, TAF9 / Fold change vs veh, TAF9 / RFU, SLC1A5 / Fold change vs veh, SLC1A5 / RFU, SLMO2 / Fold change vs veh, SLMO2 / RFU, ABCC4 / Fold change vs veh, ABCC4 / RFU, LOC101060439 /// RAP1B / Fold change vs veh, LOC101060439 /// RAP1B / RFU, RFX7 / Fold change vs veh, RFX7 / RFU, GTPBP10 / Fold change vs veh, GTPBP10 / RFU, CNEP1R1 / Fold change vs veh, CNEP1R1 / RFU, BIVM-ERCC5 /// ERCC5 / Fold change vs veh, BIVM-ERCC5 /// ERCC5 / RFU, ILF3 / Fold change vs veh, ILF3 / RFU 11762660_at / Fold change /veh 11762660_at / RFU VCAN (11757783_s_at) / Fold change /veh VCAN (11757783_s_at) / RFU DDX43 (11728927_at) / Fold change /veh DDX43 (11728927_at) / RFU KRT8 (11758188_x_at) / Fold change /veh KRT8 (11758188_x_at) / RFU NKD1 (11759106_at) / Fold change /veh NKD1 (11759106_at) / RFU SRD5A1 (11742802_a_at) / Fold change /veh SRD5A1 (11742802_a_at) / RFU TPSAB1 /// TPSB2 (11721975_s_at) / Fold change /veh TPSAB1 /// TPSB2 (11721975_s_at) / RFU GSTM3 (11746129_a_at) / Fold change /veh GSTM3 (11746129_a_at) / RFU IL23R (11737362_x_at) / Fold change /veh IL23R (11737362_x_at) / RFU TMEM51 (11727254_a_at) / Fold change /veh TMEM51 (11727254_a_at) / RFU PIWIL2 (11732686_x_at) / Fold change /veh PIWIL2 (11732686_x_at) / RFU ORM1 (11744905_x_at) / Fold change /veh ORM1 (11744905_x_at) / RFU CCDC152 (11743942_at) / Fold change /veh CCDC152 (11743942_at) / RFU ECM1 (11717891_a_at) / Fold change /veh ECM1 (11717891_a_at) / RFU IL23R (11748794_a_at) / Fold change /veh IL23R (11748794_a_at) / RFU TNFAIP8L3 (11732012_x_at) / Fold change /veh TNFAIP8L3 (11732012_x_at) / RFU MBOAT4 (11741988_at) / Fold change /veh MBOAT4 (11741988_at) / RFU 11764193_at / Fold change /veh 11764193_at / RFU TMEM53 (11763286_at) / Fold change /veh TMEM53 (11763286_at) / RFU MAGEB2 (11727129_at) / Fold change /veh MAGEB2 (11727129_at) / RFU TMEM200A (11744735_a_at) / Fold change /veh TMEM200A (11744735_a_at) / RFU CCDC152 (11751479_a_at) / Fold change /veh CCDC152 (11751479_a_at) / RFU FAM211A (11726209_a_at) / Fold change /veh FAM211A (11726209_a_at) / RFU RGS16 (11746705_a_at) / Fold change /veh RGS16 (11746705_a_at) / RFU VCAN (11755009_s_at) / Fold change /veh VCAN (11755009_s_at) / RFU RHOB (11743442_s_at) / Fold change /veh RHOB (11743442_s_at) / RFU RGS16 (11720943_a_at) / Fold change /veh RGS16 (11720943_a_at) / RFU RGS16 (11720944_at) / Fold change /veh RGS16 (11720944_at) / RFU, VPS4B / Fold change vs veh, VPS4B / RFU, CREB1 / Fold change vs veh, CREB1 / RFU, DNAJC13 / Fold change vs veh, DNAJC13 / RFU, GNAQ / Fold change vs veh, GNAQ / RFU, CDK5R1 / Fold change vs veh, CDK5R1 / RFU, ZRANB3 / Fold change vs veh, ZRANB3 / RFU, CUL4A / Fold change vs veh, CUL4A / RFU, CCNY / Fold change vs veh, CCNY / RFU, UFL1 / Fold change vs veh, UFL1 / RFU, COG3 / Fold change vs veh, COG3 / RFU, DIAPH2 / Fold change vs veh, DIAPH2 / RFU, SKA2 / Fold change vs veh, SKA2 / RFU, AFF3 / Fold change vs veh, AFF3 / RFU, LMF1 / Fold change vs veh, LMF1 / RFU, IPO11 / Fold change vs veh, IPO11 / RFU, DFFB / Fold change vs veh, DFFB / RFU, FOXP1 / Fold change vs veh, FOXP1 / RFU, CARD8 / Fold change vs veh, CARD8 / RFU, STRN3 / Fold change vs veh, STRN3 / RFU, ADK / Fold change vs veh, ADK / RFU, RASSF2 / Fold change vs veh, RASSF2 / RFU, WIPF1 / Fold change vs veh, WIPF1 / RFU, LARP1B / Fold change vs veh, LARP1B / RFU, RASA1 / Fold change vs veh, RASA1 / RFU, RB1 / Fold change vs veh, RB1 / RFU, PPFIA1 / Fold change vs veh, PPFIA1 / RFU, MAT2A / Fold change vs veh, MAT2A / RFU, CCT5 / Fold change vs veh, CCT5 / RFU, WDR92 / Fold change vs veh, WDR92 / RFU, CUX1 / Fold change vs veh, CUX1 / RFU, TTC7A / Fold change vs veh, TTC7A / RFU, TMEM135 / Fold change vs veh, TMEM135 / RFU, DEPTOR / Fold change vs veh, DEPTOR / RFU, CPM / Fold change vs veh, CPM / RFU, DNAJB6 / Fold change vs veh, DNAJB6 / RFU, CACNA2D3 / Fold change vs veh, CACNA2D3 / RFU, DTX4 / Fold change vs veh, DTX4 / RFU, TFCP2 / Fold change vs veh, TFCP2 / RFU, GMCL1 /// GMCL1P1 / Fold change vs veh, GMCL1 /// GMCL1P1 / RFU, AEBP2 / Fold change vs veh, AEBP2 / RFU, SNHG1 /// SNORD22 /// SNORD25 /// SNORD26 /// SNORD27 /// SNORD28 /// SNORD29 /// SNORD31 / Fold change vs veh, SNHG1 /// SNORD22 /// SNORD25 /// SNORD26 /// SNORD27 /// SNORD28 /// SNORD29 /// SNORD31 / Fold change (Aza/veh), C12orf56 (ProbeSet 11735607_a_at) / Fold change (ACY-1035/veh), C12orf56 (ProbeSet 11735607_a_at) / Fold change (Aza/veh), FGFR1OP (ProbeSet 11751329_s_at) / Fold change (ACY-1035/veh), FGFR1OP (ProbeSet 11751329_s_at) / Fold change (Aza/veh), VPS36 (ProbeSet 11739960_a_at) / Fold change (ACY-1035/veh), VPS36 (ProbeSet 11739960_a_at) / RFU SYPL1 (11715823_x_at) / Fold change /veh SYPL1 (11715823_x_at) / RFU IGFBP7 (11715501_s_at) / Fold change /veh IGFBP7 (11715501_s_at) / RFU REEP3 (11722064_at) / Fold change /veh REEP3 (11722064_at) / RFU IGLL1 (11728026_x_at) / Fold change /veh IGLL1 (11728026_x_at): dose or concentration left out as unconfirmed
# Settings: ProbeSet 11727641_at; LIST B
smiles,measurement,value
Nc1ccc(-c2cccs2)cc1NC(=O)c1ccc2c(c1)cc(C1CC1)n2CCN1CCOCC1 [ACY-1035],"Fold change vs veh, NOM1",0.95
